Patent US20240208954A1, “OXADIAZOLE COMPOUND, PREPARATION METHOD THEREFOR, PHARMACEUTICAL COMPOSITION AND USE THEREOF” (SHANGHAI INSTITUTE OF MATERIA MEDICA, CHINESE ACADEMY OF …, priority 2020, published 2024)
“Also recorded” adds a separate entry of the source.

Key:
S1P4 = biological target: T1, S1P4 (Homo sapiens, UniProt O95977); assay: Subtype selectivity study, method of Experimental Example 1; assay type: cell-based
T1 sequence (O95977 1-384): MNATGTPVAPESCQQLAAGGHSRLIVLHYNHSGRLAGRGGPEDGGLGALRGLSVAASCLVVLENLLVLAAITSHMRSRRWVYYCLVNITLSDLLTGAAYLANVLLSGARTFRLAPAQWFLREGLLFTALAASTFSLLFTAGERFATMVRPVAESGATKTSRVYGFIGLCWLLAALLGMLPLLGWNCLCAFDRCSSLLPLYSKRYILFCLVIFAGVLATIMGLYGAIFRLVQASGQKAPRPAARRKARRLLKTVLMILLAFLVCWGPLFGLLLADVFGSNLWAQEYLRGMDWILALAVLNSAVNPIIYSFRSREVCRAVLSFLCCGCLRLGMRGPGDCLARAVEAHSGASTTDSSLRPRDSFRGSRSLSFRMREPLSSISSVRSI
Description: Experimental method: CHO-K1/Ga15/EDG1 cells stably expressing EDG1 receptor were cultured in a 10 cm culture dish in a 37° C./5% CO2incubator, and digested when the confluence rate reached 80%-85%. The cells in collected cell suspension were inoculated into 384 microtiter plates at appropriate density, and then placed in a 37° C./5% CO2 incubator and continue to incubate for at least 18 hours before using for experiments. After 18-20 hours, the cell culture plat was taken out and added with dye working solution, and then the plate was placed in a 37° C./5% CO2 incubator for 1 hour, and finally equilibrated at room temperature for 15 minutes. Positive agonist working solution was added, and RFU values were detected and recorded. The 384 microplates, cell plates and tip box with positive agonist working solution were placed into FLIPRTM TETRA and the agonist mode assay program was run with an overall assay time of 120 seconds. The positive agonist working fluid was added to the cell culture plate at the 21st second. 384 microplate, cell plate and gun head box containing the positive antagonist working fluid were put into the FLIPRTM TETRA. The antagonistic mode detection program, the overall detection time of the instrument was 120 seconds, and positive antagonist working solution was added to the cell culture plate at the 21st second. Data processing: Raw data were obtained via ScreenWorks (version 3.1) and saved as *FMD files on the […] computer network system. Data were collected and analyzed using Excel and GraphPad Prism 6 software programs. […] The four-parameter equation was as follows: y=Bottom+(Top-Bottom)/(1+10^((LogEC50/IC50-X)*HillSlope)), wherein X is the Log value of the concentration and Y was the inhibition rate. The S1P receptor selectivity was tested for different subtypes using the method described in Experimental Example 1.

[1] = test system: GAN diet-induced NASH mouse model; assay: In vivo anti-obesity, insulin resistance, NASH pharmacological activity test; set-up: species or system C57BL/6 mice
Excerpt: In this experiment, we investigated the effects of long-term oral administration of compound A1 on obesity, insulin resistance, hepatic lipid accumulation, inflammation and fibrosis in mice with a triple phenotype of obesity, insulin resistance and NASH induced by high fat, high cholesterol and high fructose (Gubra amylin, GAN).
Animal experiment: Male C57BL/6 mice were fed with GAN diet to induce the NASH model, and 12 weeks after modeling, the mice were randomly divided into 3 groups: low-fat diet control group (LFD, n=6), model control group (Model, n=10), and A1 group (10 mg/kg, n=10), and administered by gavage at a dose of 10 mg/kg and a volume of 10 mL/kg, once a day. During the period of administration, the food intake and body weight of animals were monitored; after 10 weeks of administration, glucose tolerance test (GTT) and insulin tolerance test (ITT) were performed; after 11 weeks of administration, fasting glucose and insulin were measured; after 12 weeks of administration, core body temperature and energy metabolism were measured; after 15 weeks of administration, body composition of mice was measured, and mice were sacrificed by dislocation after blood sampling via the posterior ocular venous plexus, and liver, subcutaneous fat, epididymal fat and brown fat were weighed, part the liver was fixed in 4% paraformaldehyde, and all tissues and serum were stored at −80° C. This experiment evaluated whether the compounds have the effect of weight loss by detecting energy metabolism, body composition, and fat weight of mice; whether the compounds have the effect of improving insulin resistance by GTT, ITT, detecting random blood glucose, fasting blood glucose and fasting insulin, and calculating HOMA-IR index; whether the compounds have the effect of […] by detecting serum liver function indexes ALT, AST, triglyceride, total cholesterol (T-CHO), LDL-C, HDL-C levels in serum, triglyceride, T-CHO, and hydroxyproline (characteristic amino acids of collagen) levels in liver, and by measuring mRNA expression levels of fatty acid ab initio synthesis and transport related genes (Srebp1c, Sed1, Fasn, Acaca, Cd36),β-oxidative metabolic pathways (Ppara, Cyp4A1,Cpt1b,Acot1,Acox1), inflammation related genes (Tnfa, Il1b, Casp1, Nlrp3, Pycard, Panx1, Cel2, Cel3) and fibrosis-related genes (Asma, Tgfb, Col1A1, Col3A1 , Col4A1 , Col4a2, Col5a2) and liver pathological changes (H&E staining, Oil Red O staining and Sirius Scarlet staining) and other indicators to evaluate whether the compounds have the effect of alleviating the disorder of lipid metabolism, inflammation and fibrosis in the pathological state of NASH.

[2] = 10 mg/kg gavage once a day, 15 weeks
[3] = 10 mg/kg gavage once a day, after 10 weeks
[4] = 10 mg/kg gavage once a day, after 11 weeks
[5] = 10 mg/kg gavage once a day, vs Model group
[6] = H&E-stained liver pathology sections, 10 mg/kg
[7] = liver, 10 mg/kg gavage once a day
[8] = overall statement, long-term administration

CC(C)Oc1ccc(-c2nc(-c3ccc(CN4CC(C(=O)O)C4)c4ccccc34)no2)cc1C#N.Cl [Compound A1, 1-((4-(5-(3-cyano-4-isopropoxyphenyl)-1,2,4-oxadiazol-3-yl)naphthalen-1-yl)methyl) azetidine-3-carboxylic acid hydrochloric acid]
EC50 (S1P4): > 10 µM | HOMA-IR index ([1]; 10 mg/kg gavage once a day): significantly reduced | energy metabolism and thermogenesis ([1]; 10 mg/kg gavage once a day): increasing energy metabolism and promoting thermogenesis | food intake ([1]; 10 mg/kg gavage once a day): without affecting | liver T-CHO [1, 2]: significantly reduced | liver hydroxyproline [1, 2]: significantly reduced | liver triglycerides [1, 2]: significantly reduced | liver weight [1, 2]: significantly reduced | liver-to-body ratio [1, 2]: significantly reduced | serum ALT [1, 2]: significantly reduced | serum AST [1, 2]: significantly reduced | serum HDL-C [1, 2]: significantly reduced | serum LDL-C [1, 2]: significantly reduced | serum T-CHO [1, 2]: significantly reduced | serum triglycerides [1, 2]: significantly reduced | glucose tolerance (GTT) [1, 3]: significantly improved | insulin sensitivity (ITT) [1, 3]: significantly improved | fasting glucose [1, 4]: significantly reduced | fasting insulin [1, 4]: significantly reduced | body fat content [1, 5]: reduced | body weight gain [1, 5]: significantly slowed down | NAS scores [1, 6]: significantly decreased | lipid accumulation in the liver [1, 6]: ameliorating (but not significant) effect | liver ballooning degeneration and inflammation [1, 6]: significantly alleviated | liver lipid accumulation ([1]; Oil Red O stained sections, mainly by reducing lipid droplet size, 10 mg/kg): significantly reduced | liver collagen deposition ([1]; Sirius Scarlet stained sections, 10 mg/kg): significantly reduced | mRNA expression of fatty acid oxidation-related genes (Ppara, Cyp4A1, Acot1, Acox1) [1, 7]: significantly upregulated | mRNA expression of fibrosis-related genes (Asma, Tgfb, Col1A1, Col3A1, Col5a2) [1, 7]: downregulated | mRNA expression of inflammation genes (Tnfa, Il1b, Casp1, Pycard, Ccl2, Ccl3) [1, 7]: downregulated | serological and hepatic biochemical indexes ([1]; overall statement, FIG. 3): improved | hepatic lipid metabolism disorders, inflammation and fibrosis ([1]; overall statement, FIG. 4): improved | effect on NASH [1, 8]: significant alleviating effect | insulin resistance (symptoms) [1, 8]: significantly alleviate; also recorded: alleviated | obesity (symptoms) [1, 8]: significantly alleviate; also recorded: alleviated
